Where two headings read alike, the source gives them in different places.
How the values were obtained:
[1] = target: T1, rat histamine H3 receptor (Rattus norvegicus, UniProt Q9QYN8); assay: Rat H3 radioligand binding ([3H]-N-alpha-methylhistamine, SPA)
T1 construct: encoding the entire 445-amino-acid rat histamine H3 receptor; expressed in transfected cells; membrane preparation
From the text: Cell line development and membrane preparation. The rat H3 receptor cDNA was PCR amplified from reverse-transcribed RNA pooled from rat thalamus, hypothalamus, striatum and prefrontal cortex with a sequence corresponding to by #338-1672 of Genbank file #NM_053506, encoding the entire 445-amino-acid rat histamine H3 receptor. This was engineered into the pIRES-neo3 mammalian expression vector, which was stably transfected into the CHO-A3 cell line (Euroscreen, Belgium), followed by clonal selection by limiting dilution. Cells were harvested and cell pellets were frozen (−80° C.). Cell pellets were resuspended in 5 mM Tris-HCl, pH 7.5 with […] and a cocktail of protease inhibitors (Complete Protease Inhibitior Tablets, Roche Diagnostics). Cells were disrupted using a polytron cell homogenizer and the suspension was centrifuged at 1000×g for 10 minutes at 4° C. The pellet was discarded and the supernatant centrifuged at 40,000×g for 30 min at 4° C. This membrane pellet was washed in membrane buffer containing 50 mM Tris-HCl, pH 7.5 with 0.6 mM EDTA, 5 mM MgCl2 and protease inhibitors, recentrifuged as above and the final pellet resuspended in membrane buffer plus 250 mM sucrose and frozen at −80° C.
(§1) Radioligand Binding. Membranes were resuspended in 50 mM Tris HCl (pH 7.4), 5 mM MgCl2, 0.1% BSA. The membrane suspensions (10 μg protein per well) were incubated in a 96 well microtiter plate with [^3H]-N-alpha-methylhistamine (approximately 1 nM final concentration), test compounds at various concentrations (0.01 nM-30 μM) and scintillation proximity beads (Perkin Elmer, FlashBlueGPCR Scintillating Beads) in a final volume of 80 μl for 4 hours at room temperature, protected from light. Non-specific binding was determined in the presence of 10 μM clobenpropit. Radioligand bound to receptor, and therefore in proximity to the scintillation beads, was measured using a MicroBeta scintillation counter.

human H3 receptor = target: T2, human H3 receptor (Homo sapiens, UniProt Q9Y5N1); assay: Human H3 radioligand binding ([3H]-N-alpha-methylhistamine, SPA)
T2 construct: expressed in transfected cells
Experimental: Methods: CHO cells stably expressing the human H3 receptor (GenBank: NM_007232) were harvested and cell pellets were frozen (−80° C.). Cell pellets were resuspended in 5 mM Tris-HCl, pH 7.5 with […] and a cocktail of protease inhibitors (Complete Protease Inhibitior Tablets, Roche Diagnostics). Cells were disrupted using a polytron cell homogenizer and the suspension was centrifuged at 1000×g for 10 minutes at 4° C. The pellet was discarded and the supernatant centrifuged at 40,000×g for 30 min at 4° C. This membrane pellet was washed in membrane buffer containing 50 mM Tris-HCl, pH 7.5 with 0.6 mM EDTA, 5 mM MgCl2 and protease inhibitors, recentrifuged as above and the final pellet resuspended in membrane buffer plus 250 mM sucrose and frozen at −80° C.
as §1

[2] = Rat H3 binding, Table B, Examples 136-362, read-out: rat H3 binding Ki
[3] = Human H3 binding, Table B, Examples 136-362, read-out: hum H3 binding Ki
[4] = rat H3 binding, Table D, read-out: Rat H3 Ki
[5] = human H3 binding, Table D, read-out: Human H3 Ki
[6] = Table C, rat H3 binding, read-out: Rat H3 Ki
[7] = Table C, human H3 binding, read-out: Human H3 Ki

T1 sequence (Q9QYN8 whole entry): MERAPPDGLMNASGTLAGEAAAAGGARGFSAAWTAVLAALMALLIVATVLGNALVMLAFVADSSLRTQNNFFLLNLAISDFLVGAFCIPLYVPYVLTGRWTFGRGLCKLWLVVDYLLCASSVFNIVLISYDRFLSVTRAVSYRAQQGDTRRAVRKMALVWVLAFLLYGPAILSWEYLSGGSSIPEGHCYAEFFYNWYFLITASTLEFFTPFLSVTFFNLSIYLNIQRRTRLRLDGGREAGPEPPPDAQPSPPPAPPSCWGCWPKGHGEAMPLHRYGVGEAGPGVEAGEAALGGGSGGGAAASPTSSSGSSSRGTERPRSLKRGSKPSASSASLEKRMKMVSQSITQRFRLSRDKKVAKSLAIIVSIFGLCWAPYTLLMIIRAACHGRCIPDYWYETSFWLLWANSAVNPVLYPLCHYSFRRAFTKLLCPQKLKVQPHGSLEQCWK
T2 sequence (Q9Y5N1 whole entry): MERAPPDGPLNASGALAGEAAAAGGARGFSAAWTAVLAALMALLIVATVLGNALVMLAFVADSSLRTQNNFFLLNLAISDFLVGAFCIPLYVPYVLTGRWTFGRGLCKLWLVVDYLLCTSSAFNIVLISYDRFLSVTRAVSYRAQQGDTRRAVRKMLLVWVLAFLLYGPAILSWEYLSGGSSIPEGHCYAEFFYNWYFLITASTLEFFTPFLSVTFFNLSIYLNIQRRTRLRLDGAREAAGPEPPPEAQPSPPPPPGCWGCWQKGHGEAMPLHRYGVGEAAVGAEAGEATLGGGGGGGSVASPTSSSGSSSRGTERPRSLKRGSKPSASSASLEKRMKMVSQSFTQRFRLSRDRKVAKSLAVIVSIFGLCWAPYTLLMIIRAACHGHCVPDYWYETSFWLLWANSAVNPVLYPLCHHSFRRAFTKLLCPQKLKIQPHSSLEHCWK

Row | SMILES | melting point | Ki [1, 4] | Ki (human H3 receptor; [5]) | other results
1 | COCC(C)(C)NC(=O)c1ccc(-c2ccc3c(c2)COC2(CCN(C4CCC4)CC2)O3)cc1 [Example 284] | 138 to 140 °C | – | – | Ki [1, 2]: < 200 nM; Ki (human H3 receptor; [3]): < 200 nM
2 | Cc1noc(COc2ccc3c(c2)CCC2(CCN(C4CCC4)CC2)O3)n1 [Example 616] | 95 to 96 °C | < 200 nM | < 200 nM | –
3 | O=c1ncc(Oc2ccc3c(c2)CCC2(CCN(C4CCC4)CC2)O3)c[nH]1 [Example 495] | 259 to 261 °C | – | – | Ki ([1]; read-out: Rat H3 kI): < 200 nM; Ki (human H3 receptor; read-out: Human H3 Ki): < 200 nM
4 | OC1(c2ccc3c(c2)COC2(CCN(C4CCC4)CC2)O3)COC1 [Example 505] | 180 to 183 °C | – | – | Ki ([1]; read-out: Rat H3 kI): < 200 nM; Ki (human H3 receptor; read-out: Human H3 Ki): < 200 nM
5 | CNC(=O)c1ccc(OC2CCN(c3ccc4c(c3)CCC3(CCN(C5CCC5)CC3)O4)CC2)nc1 [Example 439] | 214 to 216 °C | – | – | Ki [1, 6]: < 200 nM; Ki (human H3 receptor; [7]): < 200 nM
6 | c1cc2c(cc1O[C@@H]1CCOC1)CCC1(CCN(C3CCC3)CC1)O2 [Example 443] | 261 to 263 °C | – | – | Ki [1, 6]: 200 to 1000 nM; Ki (human H3 receptor; [7]): < 200 nM
7 | O=C1CC=C(c2ccc3c(c2)COC2(CCN(C4CCC4)CC2)O3)CC1 [Example 497] | 153 to 155 °C | – | – | Ki ([1]; read-out: Rat H3 kI): < 200 nM; Ki (human H3 receptor; read-out: Human H3 Ki): < 200 nM
8 | COc1ccc(/C=C/c2ccc3c(c2)COC2(CCN(C4CCC4)CC2)O3)cn1 [Example 502] | 144 to 146 °C | – | – | Ki ([1]; read-out: Rat H3 kI): < 200 nM; Ki (human H3 receptor; read-out: Human H3 Ki): < 200 nM
9 | Cc1nnc(C2CCN(c3ccc4c(c3)COC3(CCN(C5CCC5)CC3)O4)CC2)o1 [Example 657] | 75.5 to 77.8 °C | < 200 nM | < 200 nM | –
10 | COc1ncc(-c2ccc3c(c2)COC2(CCN(C4CCC4)CC2)O3)cc1F [Example 714] | 175 to 177 °C | < 200 nM | < 200 nM | –
11 | NC(=O)COc1ccc2c(c1)CCC1(CCN(C3CCC3)CC1)O2 [Example 700] | 121 to 125 °C | < 200 nM | < 200 nM | –
12 | O=c1ccc(-c2ccc3c(c2)COC2(CCN(CCC4CCOCC4)CC2)O3)c[nH]1 [Example 703] | 214 to 216 °C | > 1000 nM | 200 to 1000 nM | –

Second part, led by results:

Row | melting point | Ki [1, 4] | Ki (human H3 receptor; [5]) | SMILES | other results
13 | 122 to 124 °C | < 200 nM | < 200 nM | COc1cc(C(N)=O)ccc1-c1ccc2c(c1)COC1(CCN(C3CCC3)CC1)O2 [Example 712] | –
14 | 195 to 197 °C | – | – | O=C1CCN1c1ccc2c(c1)CCC1(CCN(C3CCC3)CC1)O2 [Example 120] | Ki ([1]; Table A, rat H3 binding, read-out: Rat Ki): < 200 nM; Ki (human H3 receptor; Table A, human H3 binding, read-out: Human Ki): < 200 nM
15 | 249 to 250 °C | – | – | O=C(Nc1ccc2c(c1)COC1(CCN(C3CCC3)CC1)O2)c1ccc2[nH]ncc2c1 [Example 338] | Ki [1, 2]: < 200 nM; Ki (human H3 receptor; [3]): < 200 nM
16 | 202 to 203 °C | – | – | COC(=O)c1ccc(N2CCN(c3ccc4c(c3)CCC3(CCN(C5CCC5)CC3)O4)CC2)nc1 [Example 385] | Ki [1, 6]: < 200 nM; Ki (human H3 receptor; [7]): < 200 nM
17 | 68.5 to 70.2 °C | < 200 nM | < 200 nM | CN(C)C(=O)CC1CCN(c2ccc3c(c2)COC2(CCN(C4CCC4)CC2)O3)CC1 [Example 586] | –
18 | 82 to 83.3 °C | – | – | O=C(c1ccc(-c2ccc3c(c2)CCC2(CCN(C4CCC4)CC2)O3)cc1)N1CCC[C@H](O)C1 [Example 212] | Ki [1, 2]: < 200 nM; Ki (human H3 receptor; [3]): < 200 nM
19 | 68 to 70 °C | 200 to 1000 nM | < 200 nM | COCCNC(=O)CCc1ccc2c(c1)COC1(CCN(C3CCC3)CC1)O2 [Example 644] | –
20 | 66 to 74 °C | – | – | CN(C)C(=O)c1ccc(Nc2ccc3c(c2)COC2(CCN(C4CCC4)CC2)O3)cc1 [Example 169] | Ki [1, 2]: < 200 nM; Ki (human H3 receptor; [3]): < 200 nM
21 | 85 to 87 °C | < 200 nM | < 200 nM | c1ncc(COc2ccc3c(c2)CCC2(CCN(C4CCC4)CC2)O3)s1 [Example 574] | –
22 | 78.4 to 80.2 °C | < 200 nM | < 200 nM | O=S(=O)(c1ccccc1)C1CCN(c2ccc3c(c2)COC2(CCN(C4CCC4)CC2)O3)CC1 [Example 583] | –
